Experiments:
[1] = biological target: T1, mitoKATP (endogenous, HeLa mitochondria) (Homo sapiens, UniProt Q9NUT2); assay: mitochondrial swelling; assay type: biochemical; settings: KCl swelling buffer, 1 mM MgCl2, 1 uM oligomycin, pH 7.2
T1 sequence (Q9NUT2 26-735): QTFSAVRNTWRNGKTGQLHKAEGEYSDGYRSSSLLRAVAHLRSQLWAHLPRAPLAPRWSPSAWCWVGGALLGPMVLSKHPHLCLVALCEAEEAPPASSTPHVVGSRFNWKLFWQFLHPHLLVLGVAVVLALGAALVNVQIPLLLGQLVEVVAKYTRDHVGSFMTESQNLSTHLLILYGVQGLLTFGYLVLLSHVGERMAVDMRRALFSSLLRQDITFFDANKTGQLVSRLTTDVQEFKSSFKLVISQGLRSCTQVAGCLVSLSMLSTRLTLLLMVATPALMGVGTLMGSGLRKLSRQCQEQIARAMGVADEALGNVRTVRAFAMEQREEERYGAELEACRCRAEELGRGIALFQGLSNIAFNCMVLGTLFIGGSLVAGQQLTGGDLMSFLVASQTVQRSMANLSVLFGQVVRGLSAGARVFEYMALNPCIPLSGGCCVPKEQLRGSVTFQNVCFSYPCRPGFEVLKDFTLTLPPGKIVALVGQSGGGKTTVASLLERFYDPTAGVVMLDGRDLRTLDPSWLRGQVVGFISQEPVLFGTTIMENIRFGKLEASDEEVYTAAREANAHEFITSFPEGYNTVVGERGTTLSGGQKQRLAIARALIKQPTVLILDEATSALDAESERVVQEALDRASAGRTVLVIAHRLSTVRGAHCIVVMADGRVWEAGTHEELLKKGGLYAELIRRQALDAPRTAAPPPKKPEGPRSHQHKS
T1 sequence (Q96ER9 36-411 partner): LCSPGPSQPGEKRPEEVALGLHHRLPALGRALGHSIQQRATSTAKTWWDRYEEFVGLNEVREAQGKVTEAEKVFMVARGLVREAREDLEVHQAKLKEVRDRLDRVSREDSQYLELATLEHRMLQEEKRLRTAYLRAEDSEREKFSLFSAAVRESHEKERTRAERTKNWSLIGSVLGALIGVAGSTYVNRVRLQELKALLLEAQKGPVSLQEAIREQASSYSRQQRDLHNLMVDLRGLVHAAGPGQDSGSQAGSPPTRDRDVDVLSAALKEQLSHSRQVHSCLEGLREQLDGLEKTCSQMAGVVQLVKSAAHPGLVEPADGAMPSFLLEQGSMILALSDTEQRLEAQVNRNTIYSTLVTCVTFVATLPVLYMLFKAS

[2] = biological target: T2, mitoKATP (endogenous, mouse liver mitochondria) (Mus musculus, UniProt Q9CXJ4); assay: […]+ uptake, isolated liver mitochondria; assay type: biochemical; settings: 1 mM MgCl2, 1 uM oligomycin, pH 7.2
T2 sequence (Q9CXJ4 26-717): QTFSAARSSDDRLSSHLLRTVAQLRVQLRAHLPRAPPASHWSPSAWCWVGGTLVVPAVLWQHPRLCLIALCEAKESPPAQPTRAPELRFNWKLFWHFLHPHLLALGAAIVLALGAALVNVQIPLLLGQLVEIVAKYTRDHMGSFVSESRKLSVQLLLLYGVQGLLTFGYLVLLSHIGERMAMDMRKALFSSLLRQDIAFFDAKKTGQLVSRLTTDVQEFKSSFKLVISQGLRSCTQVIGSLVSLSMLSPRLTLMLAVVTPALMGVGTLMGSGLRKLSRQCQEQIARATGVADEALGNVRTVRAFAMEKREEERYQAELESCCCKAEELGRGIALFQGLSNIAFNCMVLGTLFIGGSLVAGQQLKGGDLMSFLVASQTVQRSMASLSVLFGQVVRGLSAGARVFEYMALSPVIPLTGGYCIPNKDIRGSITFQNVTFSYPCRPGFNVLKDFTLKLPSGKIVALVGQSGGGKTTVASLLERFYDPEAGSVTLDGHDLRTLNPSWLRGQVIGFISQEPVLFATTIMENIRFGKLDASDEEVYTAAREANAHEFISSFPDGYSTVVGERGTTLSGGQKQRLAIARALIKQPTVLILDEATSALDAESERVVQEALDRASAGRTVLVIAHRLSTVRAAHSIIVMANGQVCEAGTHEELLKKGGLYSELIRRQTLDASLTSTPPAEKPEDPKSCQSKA
T2 sequence (Q3URS9 36-406 partner): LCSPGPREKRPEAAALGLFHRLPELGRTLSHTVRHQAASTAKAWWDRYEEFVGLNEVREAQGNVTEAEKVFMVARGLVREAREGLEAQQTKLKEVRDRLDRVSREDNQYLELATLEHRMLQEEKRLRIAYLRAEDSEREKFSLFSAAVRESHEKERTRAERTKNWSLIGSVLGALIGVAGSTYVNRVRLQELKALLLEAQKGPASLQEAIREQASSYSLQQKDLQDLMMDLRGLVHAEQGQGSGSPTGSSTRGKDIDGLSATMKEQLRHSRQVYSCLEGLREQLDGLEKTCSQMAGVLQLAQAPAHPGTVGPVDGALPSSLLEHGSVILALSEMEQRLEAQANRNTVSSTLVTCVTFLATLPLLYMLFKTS

Compound | mitochondrial swelling (A520), isolated HeLa mitochondria ([1]; activator) | 86Rb+ uptake, isolated liver mitochondria ([2]; activator, 50 uM diazoxide) | mitochondrial swelling (A520), isolated HeLa mitochondria ([1]; inhibitor) | 86Rb+ uptake, isolated liver mitochondria ([2]; inhibitor, 2 mM ATP)
CC1=NS(=O)(=O)c2cc(Cl)ccc2N1 [diazoxide] | ATP decreases and diazoxide increases the swelling rates | neither ATP nor diazoxide were able to alter K^+ fluxes when Mitok was absent | – | –
Nc1ncnc2c1ncn2[C@@H]1O[C@H](COP(=O)(O)OP(=O)(O)OP(=O)(O)O)[C@@H](O)[C@H]1O [ATP] | – | – | ATP decreases and diazoxide increases the swelling rates | neither ATP nor diazoxide were able to alter K^+ fluxes when Mitok was absent
